The test system of the experiment is CFTL12 Mast cells stimulated with IgE/antigen complex (TNF-alpha release). The experiment can be described thus: Inhibition of TNF-alpha production from IgE/antigen stimulated mast cells. Conditions: 60 minutes before IgE/antigen stimulation; for inhibition of TNF-alpha release: carrageenan 200 μg/ml, 6 hours at 37° C., supernatant ELISA (FIG. 1). The format is cell-based, mouse. Here is the method: TNF-alpha is a mediator that is central in an inflammatory process as observed during infections, and autoimmune diseases. It is released by white blood cells, mast cells, endothelium and several other tissues in the course of damage.
CFTL12 Mast cells were incubated with iota or kappa carrageenan at a concentration of 200 μg/ml. 60 minutes later the cells were stimulated with an IgE/antigen complex. Cells were incubated at 37° C. for 6 hours and TNF-alpha in the supernatant was determined by a commercial mouse TNF-alpha ELISA (Bender-Med-Systems). Error bars indicate the standard deviation between 4 independent wells. 1=non-stimulated; 2=IgE/antigen stimulation; 3=lambda carrageenan pretretament+subsequent IgE/antigen stimulation; 4=kappa carrageenan pretreatment++subsequent IgE/antigen stimulation, 5=iota-carrageenan pretreatment+subsequent IgE/antigen stimulation. The Y-axis mirrors the concentration of TNF-alpha in pg/ml.
Mast cells were incubated with iota-carrageenan at varying concentrations. 60 minutes later the cells were stimulated with IgE/antigen complex. Cells were incubated at 37° C. for 6 hours and TNF-alpha in the supernatant was determined by a commercial mouse TNF-alpha ELISA (Bender-Med-Systems). Error bars indicate the standard deviation between 4 independent wells. 1=non-stimulated; 2=IgE/antigen stimulated, 3=iota-carrageenan 200 μg/ml, 4=iota-carrageenan 66 μg/ml, 5=iota-carrageenan 6.6 μg/ml, 6=iota-carrageenan 0.6 μg/ml. The Y-axis represents the concentration of TNF-alpha in pg/ml.
(ELISA stands for enzyme-linked immunosorbent assay.)

iota-carrageenan: the “inhibition of TNF-alpha release” value was “inhibit TNF-alpha release”. The “dose dependence of inhibition of TNF-alpha production” value (200, 66, 6.6, 0.6 μg/ml, 6 hours (FIG. 2)) is “Dose-Dependent Inhibition”. On to kappa carrageenan, for which the “inhibition of TNF-alpha release” value is “inhibit TNF-alpha release”.

For lambda carrageenan [reference compound], the “inhibition of TNF-alpha release” value is reported as “not”.

For the origin of these results see patent US20120058206A1, “ANTIALLERGIC MARINE BIOPOLYMERS” (MARINOMED BIOTECHNOLOGIE GMBH, priority 2008, published 2012).
